Data as given in US11040081B2 (CORPORATION GENACOL CANADA INC., priority 2016, dated 2021).

Legend:
[1] = tested on: patients diagnosed with osteoarthritis of the knee; experiment: Filipino study: WOMAC osteoarthritis index, Likert version; assay type: in vivo, human; conditions: Likert 0-4
Description: Experimental, randomized, single blind observer, open-labeled, controlled trial. […] Group A subjects were given the oral collagen supplement (Genacol®, Blainville, Qc, Canada) 400 mg/capsule, 3 capsules daily at bedtime for 6 months, and a topical analgesic needed for knee pain. Group B, the control group, received the standard treatment using an oral non-steroidal inflammatory drug, in the form of aceclofenac 100 mg/tablet, 1 tablet twice a day for 5 days initially then as needed for pain, and topical analgesic (ketoprofen gel) to be applied twice a day as needed for pain. Both groups underwent physical therapy three times a week for two weeks. Heating modalities, range of motion exercises, and muscle strengthening exercises were administered on each therapy session. Follow up evaluation was done every month. On the sixth month of follow up, repeat radiography evaluation of the involved knee was done to determine if there were any changes in the knee joint. Compliance to the study medication was determined by asking the patient on their missed doses and by counting the remaining unconsumed capsules. Symptoms of osteoarthritis were assessed using the Western Ontario and McMaster Universities (WOMAC) osteoarthritis index, a validated and disease-specific questionnaire separately addressing severity of joint pain (5 questions), stiffness (2 questions), and limitation of physical function (17 questions) in the 48 hours before assessment. The Likert Version of WOMAC is rated on an ordinal scale of 0 to 4 with lower scores indicating lower levels of symptoms or physical disability. […] There is also an index score or global score, which is most commonly calculated by summating the scores for the 3 subscales. The questionnaire is self administered and takes 5 to 10 minutes to complete. Data was presented as mean±SD or frequency and percent distribution whichever was applicable. Chi square test was performed to indicate any significant difference in the distribution of male and female patients between the two groups while t-test was performed to check for any significant difference in characteristics that were continuous variables. Paired sample t-test was used to compare the significance in change in values (WOMAC and medial knee joint space) of the two groups from baseline to the sixth month follow up.

[2] = tested on: patients diagnosed with osteoarthritis of the knee; experiment: Filipino study: radiographic medial knee joint space width; assay type: in vivo, human; conditions: weight-bearing anteroposterior radiograph
Description: Group A subjects were given the oral collagen supplement (Genacol®, Blainville, Qc, Canada) 400 mg/capsule, 3 capsules daily at bedtime for 6 months, and a topical analgesic needed for knee pain. Group B, the control group, received the standard treatment using an oral non-steroidal inflammatory drug, in the form of aceclofenac 100 mg/tablet, 1 tablet twice a day for 5 days initially then as needed for pain, and topical analgesic (ketoprofen gel) to be applied twice a day as needed for pain. Both groups underwent physical therapy three times a week for two weeks. Heating modalities, range of motion exercises, and muscle strengthening exercises were administered on each therapy session. Follow up evaluation was done every month. On the sixth month of follow up, repeat radiography evaluation of the involved knee was done to determine if there were any changes in the knee joint. Compliance to the study medication was determined by asking the patient on their missed doses and by counting the remaining unconsumed capsules. […] Using a standard ruler in millimeters, one experienced radiologist who was blinded as to the treatment of each subject measured the narrowest medial compartment of the tibiofemoral joint of each radiographed knee done at the start of the study. […]

O=C(O)COC(=O)Cc1ccccc1Nc1c(Cl)cccc1Cl [Group B, aceclofenac]
WOMAC Score, mean ([1]; 2nd ff-up (monthly follow-up)): 2.42
WOMAC Score, mean ([1]; 3rd ff-up (monthly follow-up)): 2.29
WOMAC Score, mean ([1]; 4th ff-up (monthly follow-up)): 2.26
WOMAC Score, mean ([1]; 5th ff-up (monthly follow-up)): 2.17
WOMAC Score, mean ([1]; 6th ff-up (sixth month)): 1.87
WOMAC Score, mean ([1]; Baseline, Group A n=55, Group B n=58): 2.91
Median Knee Joint Space, mean ([2]; 6th ff-up (sixth month)): 3.8 mm
Median Knee Joint Space, mean ([2]; Baseline): 4.3 mm
